System: hyperalgesic foot withdrawal
Assay: Rat Carrageenan-induced Analgesia Test
Format: in vivo, Male Sprague-Dawley rats
Conditions: oral, assay performed at 50 mg/kg body weight, 3 hours after carrageenan
Method: Male Sprague-Dawley rats were treated as previously described for the Carrageenan Foot Pad Edema test. Three hours after the injection of the carrageenan, the rats were placed in a special plexiglass container with a transparent floor having a high intensity lamp as a radiant heat source; positionable under the floor. After an initial twenty minute period, thermal stimulation was begun on either the injected foot or on the contralateral uninjected foot. A photoelectric cell turned off the lamp and timer when light was interrupted by paw withdrawal. The time until the rat withdraws its foot was then measured. The withdrawal latency in seconds was determined for the control and drug-treated groups, and percent inhibition of the hyperalgesic foot withdrawal determined.

**Q.** Which “ANALGESIA % Inhibition” value does the source give for `COc1ccc(-c2cc(F)c(F)cc2-c2ccc(S(N)(=O)=O)cc2)cc1Cl` [Example 20, 4-[2-(3-chloro-4-methoxyphenyl)-4,5-difluorophenyl]benzenesulfonamide] here?
**A.** 22%

Reference: patent US5739166A, “Substituted terphenyl compounds for the treatment of inflammation” (G.D. Searle & Co., priority 1994, dated 1998)
